According to patent US9284345B2 (priority 2007, dated 2016):
Like-named read-outs stand apart in the source and are kept apart here.

Legend:
[1] = target: T1, Human Androgen Receptor (Homo sapiens, UniProt P10275); type: binding
T1 construct: expressed in transfected cells; host or cells: HEK-293 cells stably transfected with the pCMVneo-hAR plasmid (G-418 selection); cytosol used
T1 sequence (P10275 1-920): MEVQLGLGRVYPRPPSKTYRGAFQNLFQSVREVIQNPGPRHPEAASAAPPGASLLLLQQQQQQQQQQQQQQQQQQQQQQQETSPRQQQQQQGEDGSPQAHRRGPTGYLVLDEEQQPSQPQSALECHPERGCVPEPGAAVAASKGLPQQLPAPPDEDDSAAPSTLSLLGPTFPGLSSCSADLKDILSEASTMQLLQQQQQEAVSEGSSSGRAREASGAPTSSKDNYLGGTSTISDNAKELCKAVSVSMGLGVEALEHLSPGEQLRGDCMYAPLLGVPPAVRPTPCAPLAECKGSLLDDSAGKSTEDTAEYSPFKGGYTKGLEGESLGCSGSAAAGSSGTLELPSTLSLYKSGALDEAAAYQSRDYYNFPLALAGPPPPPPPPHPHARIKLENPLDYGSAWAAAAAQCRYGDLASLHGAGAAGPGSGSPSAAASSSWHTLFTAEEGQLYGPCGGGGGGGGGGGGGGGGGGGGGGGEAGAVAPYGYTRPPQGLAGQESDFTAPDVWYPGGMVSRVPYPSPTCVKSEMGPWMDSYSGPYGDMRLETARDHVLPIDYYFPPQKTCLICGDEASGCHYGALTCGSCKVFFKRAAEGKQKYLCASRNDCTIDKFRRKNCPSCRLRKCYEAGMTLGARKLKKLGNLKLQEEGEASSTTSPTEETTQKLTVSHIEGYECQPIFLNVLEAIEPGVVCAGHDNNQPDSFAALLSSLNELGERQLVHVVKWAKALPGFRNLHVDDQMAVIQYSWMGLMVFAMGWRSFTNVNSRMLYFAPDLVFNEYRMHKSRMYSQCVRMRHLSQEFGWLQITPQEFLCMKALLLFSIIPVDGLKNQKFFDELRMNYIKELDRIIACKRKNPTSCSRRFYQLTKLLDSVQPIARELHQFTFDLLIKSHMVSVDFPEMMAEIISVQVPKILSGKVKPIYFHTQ

[2] = system: Immature Rat CX; settings: for In Vivo Agonist % Change vs CX (DHT = +100%) SV / In Vivo Agonist % Change vs CX (DHT = +100%) VP: sc
[3] = in vivo; settings: male, Sprague-Dawley, rat, po; for AUC: in vivo, 0.5 mg
[4] = system: Intact Rat; test: In vivo activity in intact rat (organ and muscle weight)
[5] = system: Immature Rat CX + DHT; test: animal or person; type: in vivo; settings: for In Vivo Anti-A Rat CX + DHT % change vs DHT (CX CONT = −100%) Bulbo / In Vivo Anti-A Rat CX + DHT % change vs DHT (CX CONT = −100%) SV / In Vivo Anti-A Rat CX + DHT % change vs DHT (CX CONT = −100%) VP / change in vivo at 0.1 mg / change in vivo at 0.5 mg: po; for change in vivo at 0.1 mg / change in vivo at 0.5 mg: Rattus norvegicus, 168 h
[6] = system: Shionogi mouse mammary carcinoma cells; test: cells; type: cell-based; settings: for inhibition at 0.0003 µM: Mus musculus, read-out: % of inh of DHT at 10^−7 M (Basal = 100%)
[7] = system: androgen receptor; test: Antiandrogen / SARM / androgen profile observed on structural change; settings: structure-activity observation in estratriene derivatives
Description: Preferred positions on the steroid to this change in activities are 3, 4, 11β, 16 and 17α. […] Moreover, when we changed the 4-fluoro by a 4-chloro on EM-6583, we obtained a pure androgen (EM-5697). Similarly, when we increased the size of the chain at 17α-position on (1,4-phenylene as a spacer group), EM-8419 became a SARM. Again, when we changed the 4-fluoro by a 4-chloro on EM-8419, we obtained a pure androgen (EM-5313).
We also believed that a larger size increase could reverse the observed tendency (androgen to SARM or antiandrogen). Thus, it is not obvious to make good predictions of the biological activity of this compound family but some trends are observable.

[8] = system: CX+ 4-DIONE in Mature Rat; test: Systemic antiandrogenic activity in mature male rats; type: in vivo; settings: for inhibition of prostate weight (4-dione stimulated): 5 mg/rat
[9] = 0.1 mg/rat/os/ID, bulbocavernosus muscles weight
[10] = 0.1 mg/rat/os/ID, prostate weight
[11] = read-out: In Vivo Antagonist % Change vs DHT (CX = −100%) SV
[12] = read-out: In Vivo Antagonist % Change vs DHT (CX = −100%) VP

C[C@@]1(Cc2ccc(C#N)cc2)CC2C3CCc4c(C#N)cccc4C3CC[C@]2(C)[C@H]1O (stereo partly drawn) [EM-3585]
Human Androgen Receptor Binding RBA (%) R1881 = 100% [1]: 55%
In Vivo Agonist Rat CX % change vs CX (DHT CONT = +100%) Bulbo [2]: +74 ± 18%
In Vivo Agonist Rat CX % change vs CX (DHT CONT = +100%) SV [2]: +13 ± 4%
In Vivo Agonist Rat CX % change vs CX (DHT CONT = +100%) VP [2]: +20 ± 4%
AUC(0-t) ([3]; plasma, 0.5 mg/animal): 2.37 ± 0.253 µg·h/mL
In Vivo Intact Rat % change vs Intact CONT (Intact CONT = +100%; CX CONT = 0%) Bulbo [4, 9]: +263 ± 64%
In Vivo Intact Rat % change vs Intact CONT (Intact CONT = +100%; CX CONT = 0%) VP [4, 10]: +82 ± 17%
In Vivo Intact Rat % change vs Intact CONT (Intact CONT = +100%; CX CONT = 0%) SZ ([4]; rat, in vivo): +114 ± 23%
In Vivo Anti-A Rat CX + DHT % change vs DHT (CX CONT = −100%) Bulbo ([5]; rat, in vivo): [+67 ± 21] %
In Vivo Anti-A Rat CX + DHT % change vs DHT (CX CONT = −100%) SV ([5]; rat, in vivo): [−2 ± 15] %
In Vivo Anti-A Rat CX + DHT % change vs DHT (CX CONT = −100%) VP ([5]; rat, in vivo): [−26 ± 7] %
% of stim of basal at 10^−7M (% over basal) [6]: +279%
% of stim of basal at 10^−7 M (DHT = 100%) [6]: +63%
inhibition at 0.0003 µM [6]: 41%

C[C@H]1C[C@@]2(C)C(CC[C@@]2(O)Cc2cc[n+]([O-])cc2)C2CCc3c(ccc(C#N)c3F)C21 (stereo partly drawn) [EM-6583]
Human Androgen Receptor Binding RBA (%) R1881 = 100% [1]: 21%
activity profile (antiandrogen, SARM or androgen) [7]: became a SARM
In Vivo Agonist Rat CX % change vs CX (DHT CONT = +100%) Bulbo [2]: +93 ± 15%
In Vivo Agonist Rat CX % change vs CX (DHT CONT = +100%) SV [2]: +17 ± 3%
In Vivo Agonist Rat CX % change vs CX (DHT CONT = +100%) VP [2]: +37 ± 7%
In Vivo Intact Rat % change vs Intact CONT (Intact CONT = +100%; CX CONT = 0%) Bulbo [4, 9]: +145 ± 46%
In Vivo Intact Rat % change vs Intact CONT (Intact CONT = +100%; CX CONT = 0%) VP [4, 10]: +90 ± 2%
In Vivo Intact Rat % change vs Intact CONT (Intact CONT = +100%; CX CONT = 0%) SZ ([4]; rat, in vivo): +71 ± 16%
In Vivo Anti-A Rat CX + DHT % change vs DHT (CX CONT = −100%) SV ([5]; rat, in vivo): −75 ± 5%
In Vivo Anti-A Rat CX + DHT % change vs DHT (CX CONT = −100%) VP ([5]; rat, in vivo): −46 ± 6%
% of stim of basal at 10^−7M (% over basal) [6]: +138 ± 49%
% of stim of basal at 10^−7 M (DHT = 100%) [6]: +52 ± 27%
inhibition at 0.0003 µM [6]: 46%

CC(C)C(=O)Nc1ccc([N+](=O)[O-])c(C(F)(F)F)c1 [Flutamide, reference compound]
In Vivo Agonist % Change vs CX (DHT = +100%) SV [2]: (0; 0.2 mg, sc) %
In Vivo Agonist % Change vs CX (DHT = +100%) VP [2]: (1; 0.2 mg, sc) %
% change vs 4-DIONE Cont (CX Cont = −100% inh) Seminal Vesicles ([8]; 1 mg/rat/per os/ID): −102 ± 8%
% change vs 4-DIONE Cont (CX Cont = −100% inh) Ventral Prostate ([8]; 1 mg/rat/per os/ID): −47 ± 7%
inhibition of prostate weight (4-dione stimulated) [8]: 70%
% change vs 4-DIONE Cont (CX Cont = −100% inh) Seminal Vesicles ([8]; 5 mg/rat/per os/ID): −106 ± 6%
% change vs 4-DIONE Cont (CX Cont = −100% inh) Ventral Prostate ([8]; 5 mg/rat/per os/ID): −70 ± 3%
AUC [3]: 0.039 ± 0.004 µg·h/mL
In Vivo Intact Rat % change vs Intact CONT (Intact CONT = +100%; CX CONT = 0%) Bulbo ([4]; rat, in vivo): +42 ± 6%
In Vivo Intact Rat % change vs Intact CONT (Intact CONT = +100%; CX CONT = 0%) SZ ([4]; rat, in vivo): +33 ± 4%
In Vivo Intact Rat % change vs Intact CONT (Intact CONT = +100%; CX CONT = 0%) VP ([4]; rat, in vivo): +75 ± 4%
change in vivo at 0.1 mg [5, 11]: -62 ± 4%
change in vivo at 0.5 mg [5, 11]: -83%
change in vivo at 0.1 mg [5, 12]: -26 ± 2%
change in vivo at 0.5 mg [5, 12]: -48%
inhibition of DHT-stimulated seminal vesicle weight ([5]; rat, in vivo): 83%
inhibition of DHT-stimulated ventral prostate weight ([5]; rat, in vivo): 48%
In Vivo Anti-A Rat CX + DHT % change vs DHT (CX CONT = −100%) Bulbo ([5]; rat, in vivo): [−68 ± 2] %
In Vivo Anti-A Rat CX + DHT % change vs DHT (CX CONT = −100%) SV ([5]; rat, in vivo): [−83 ± 1] %
In Vivo Anti-A Rat CX + DHT % change vs DHT (CX CONT = −100%) VP ([5]; rat, in vivo): [−48 ± 1] %

CC(O)(CS(=O)(=O)c1ccc(F)cc1)C(=O)Nc1ccc(C#N)c(C(F)(F)F)c1 (stereo not drawn) [bicalutamide]
In Vivo Agonist % Change vs CX (DHT = +100%) SV [2]: (0; 0.2 mg, sc) %
In Vivo Agonist % Change vs CX (DHT = +100%) VP [2]: (0; 0.2 mg, sc) %
% change vs 4-DIONE Cont (CX Cont = −100% inh) Seminal Vesicles ([8]; 1 mg/rat/per os/ID): −82 ± 9%
% change vs 4-DIONE Cont (CX Cont = −100% inh) Ventral Prostate ([8]; 1 mg/rat/per os/ID): −44 ± 7%
inhibition of prostate weight (4-dione stimulated) [8]: 64%
% change vs 4-DIONE Cont (CX Cont = −100% inh) Seminal Vesicles ([8]; 5 mg/rat/per os/ID): −90 ± 6%
% change vs 4-DIONE Cont (CX Cont = −100% inh) Ventral Prostate ([8]; 5 mg/rat/per os/ID): −64 ± 4%
AUC [3]: 8.5 ± 0.386 µg·h/mL
change in vivo at 0.5 mg [5, 11]: -86%
change in vivo at 0.5 mg [5, 12]: -51%
